Assay results published in article PMC4050194 (FEBS Open Bio, 2014).

Molecular target: T1, Cra (FruR) protein of Pseudomonas putida (Cra^PP) (Pseudomonas putida, UniProt Q88PQ6)
T1 sequence (Q88PQ6 1-331): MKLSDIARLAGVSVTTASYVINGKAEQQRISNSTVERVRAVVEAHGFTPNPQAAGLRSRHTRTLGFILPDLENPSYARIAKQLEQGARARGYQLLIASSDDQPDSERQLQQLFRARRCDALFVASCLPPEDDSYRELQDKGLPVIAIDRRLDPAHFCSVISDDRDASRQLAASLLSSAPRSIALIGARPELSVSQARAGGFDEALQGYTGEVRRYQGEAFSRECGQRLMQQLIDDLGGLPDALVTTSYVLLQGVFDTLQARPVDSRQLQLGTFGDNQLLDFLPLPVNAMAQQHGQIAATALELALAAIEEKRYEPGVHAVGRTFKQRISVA
Assay: ITC with purified Cra
Format: binding

O=P(O)(O)OCC1(O)O[C@H](CO)[C@@H](O)[C@@H]1O (stereo partly shown) [F1P, fructose 1-phosphate]
Kd: ~200 nM
